# Laboratory results taken from patent US20230021483A1, “[…] […] METHOD AND CLASSIFICATION OF PHARMACEUTICAL COMPONENTS BY USING TRANSCRIPTOMES” (National Institutes of Biomedical Innovation, Health and …, priority 2016, published 2023).
# “And” between values parts separate entries of the source, which are not always exact repeats. Equal values may be shown once.
# Columns and labels:
# Assay type in all cases: in vivo, C57BL/6 mice
# [1] = tested on: LV, SP and LNs; assay: Whole organ transcriptome across organs (adjuvant gene space): gene responses and adjuvant grouping
# [2] = tested on: preferentially upregulated genes in LV, SP, LN; assay: Z-score-based differential gene expression analysis (adjuvant group- or adjuvant-associated genes, 40 module mapping, TargetMine annotation); settings: for Adar 1425405_a_at (Group G1, Modules 20) / Adar 1434268_at (Group G1, Modules 20) / Ddx58 1436562_at (Group G1, Modules 20) / Ddx58 1456890_at (Group G1, Modules 20) / Gm9706///Isg15 1431591_s_at (Group G1, Modules 20) / Ifit1 1450783_at (Group G1, Modules 20) / Ifit3 1449025_at (Group G1, Modules 20) / Irgm1 1418825_at (Group G1, Modules 20) / Mndal 1426906_at (Group G1, Modules 20) / Rsad2 1436058_at (Group G1, Modules 20) / Shisa5 1423986_a_at (Group G1, Modules 20) / Shisa5 1437503_a_at (Group G1, Modules 20) / Stat1 1450033_a_at (Group G1, Modules 20) / Stat1 1450034_at (Group G1, Modules 20) / Tor1aip2 1435526_at (Group G1, Modules 20): IP, LV
# From the text: Each sample's FC value was converted into a z-score on a gene basis by using the entire data set for each organ. The Z-score of the triplicates of interest were summed for each adjuvant. For example, the three sample z-score in the LV sample following cdiGMP administration was summed on a gene-by-gene basis, after which the summed scores of >3 genes were selected as relatively preferentially expressed genes in the LV after cdiGMP administration. The following threshold was applied for selections. […] G2^LV: ALM_IP(z>1) & bCD(z>1) & ENDCN(z>1) & FCA(z>1). […] G4^LV: MALP2s(z>3). […] G2^SP: ENDCN_x2+ENDCN_x3(z>2) & ALM_IP(z>3) & bCD(z>3). […] G4^SP: ADX_ID_x2+ADX_ID_x3(z>2) & ADX_IP(z>3) & MALP2s(z>3). […] G2^LN: bCD(z>3) & FCA(z>3). […] G5^LN: K3(z>1.5) & K3SPG_x1+K3SPG_x2(z>1) & D35_x1+D35_x3(z>1). G6^LN: AddaVax(z>3).
# [3] = tested on: inguinal lymph nodes (LN); assay: Whole organ transcriptome (GeneChip microarray) of draining inguinal lymph nodes 6 h after adjuvant administration: sDEGs, gene modules, hierarchical clustering; settings: lymph node; on adjuvant group (cluster) in LN: key: G1 (interferon signaling); G2 (metabolism of lipids and lipoproteins); G3 (response to stress); G4 (response to wounding); G5 (phosphate-containing compound metabolic process); G6 (phagosome)
# [4] = liver (LV), gene group G1, module 20, individual mice x1-x3, route ID/IP/IN
compound,measurement,setting,value
"CC(O)COC[C@H]1O[C@@H]2O[C@H]3[C@H](O)[C@@H](O)[C@@H](O[C@H]4[C@H](O)[C@@H](O)[C@@H](O[C@H]5[C@H](O)[C@@H](O)[C@@H](O[C@H]6[C@H](O)[C@@H](O)[C@@H](O[C@H]7[C@H](O)[C@@H](O)[C@@H](O[C@H]8[C@H](O)[C@@H](O)[C@@H](O[C@H]1[C@H](O)[C@H]2O)O[C@@H]8COCC(C)O)O[C@@H]7COCC(C)O)O[C@@H]6COCC(C)O)O[C@@H]5COCC(C)O)O[C@@H]4COCC(C)O)O[C@@H]3COCC(C)O (stereo partly drawn) [bCD, Hydroxypropyl-beta-cyclodextrin]",gene expression changes in LV and SP,"[1]; 6 h, Table 15, route not given",relatively weaker responses
same,adjuvant group (cluster) within the adjuvant gene space,"[1]; hierarchical clustering, LV, SP and/or LNs",G2
same,"Adar 1425405_a_at (Group G1, Modules 20)",[2]; sample x1,−0.5
same,"Adar 1434268_at (Group G1, Modules 20)",[2]; sample x1,−0.3
same,"Ddx58 1436562_at (Group G1, Modules 20)",[2]; sample x1,−0.4
same,"Ddx58 1456890_at (Group G1, Modules 20)",[2]; sample x1,−0.6
same,"Gm9706///Isg15 1431591_s_at (Group G1, Modules 20)",[2]; sample x1,−0.5
same,"Ifit1 1450783_at (Group G1, Modules 20)",[2]; sample x1,−0.5
same,"Ifit3 1449025_at (Group G1, Modules 20)",[2]; sample x1,−0.5
same,"Irgm1 1418825_at (Group G1, Modules 20)",[2]; sample x1,−0.5
same,"Mndal 1426906_at (Group G1, Modules 20)",[2]; sample x1,−0.3
same,"Rsad2 1436058_at (Group G1, Modules 20)",[2]; sample x1,−0.5
same,"Shisa5 1423986_a_at (Group G1, Modules 20)",[2]; sample x1,−0.6
same,"Shisa5 1437503_a_at (Group G1, Modules 20)",[2]; sample x1,−0.4
same,"Stat1 1450033_a_at (Group G1, Modules 20)",[2]; sample x1,−0.5
same,"Stat1 1450034_at (Group G1, Modules 20)",[2]; sample x1,−0.5
same,"Tor1aip2 1435526_at (Group G1, Modules 20)",[2]; sample x1,−0.4
same,"Adar 1425405_a_at (Group G1, Modules 20)",[2]; sample x2,−0.4
same,"Adar 1434268_at (Group G1, Modules 20)",[2]; sample x2,−0.4
same,"Ddx58 1436562_at (Group G1, Modules 20)",[2]; sample x2,−0.3
same,"Ddx58 1456890_at (Group G1, Modules 20)",[2]; sample x2,−0.4
same,"Gm9706///Isg15 1431591_s_at (Group G1, Modules 20)",[2]; sample x2,−0.5
same,"Ifit1 1450783_at (Group G1, Modules 20)",[2]; sample x2,−0.5
same,"Ifit3 1449025_at (Group G1, Modules 20)",[2]; sample x2,−0.5
same,"Irgm1 1418825_at (Group G1, Modules 20)",[2]; sample x2,−0.6
same,"Mndal 1426906_at (Group G1, Modules 20)",[2]; sample x2,−0.3
same,"Rsad2 1436058_at (Group G1, Modules 20)",[2]; sample x2,−0.4
same,"Shisa5 1423986_a_at (Group G1, Modules 20)",[2]; sample x2,−0.3
same,"Shisa5 1437503_a_at (Group G1, Modules 20)",[2]; sample x2,−0.3
same,"Stat1 1450033_a_at (Group G1, Modules 20)",[2]; sample x2,−0.6
same,"Stat1 1450034_at (Group G1, Modules 20)",[2]; sample x2,−0.5
same,"Tor1aip2 1435526_at (Group G1, Modules 20)",[2]; sample x2,−0.3
same,"Adar 1425405_a_at (Group G1, Modules 20)",[2]; sample x3,−0.3
same,"Adar 1434268_at (Group G1, Modules 20)",[2]; sample x3,−0.4
same,"Ddx58 1436562_at (Group G1, Modules 20)",[2]; sample x3,−0.1
same,"Ddx58 1456890_at (Group G1, Modules 20)",[2]; sample x3,−0.3
same,"Gm9706///Isg15 1431591_s_at (Group G1, Modules 20)",[2]; sample x3,−0.5
same,"Ifit1 1450783_at (Group G1, Modules 20)",[2]; sample x3,−0.5
same,"Ifit3 1449025_at (Group G1, Modules 20)",[2]; sample x3,−0.5
same,"Irgm1 1418825_at (Group G1, Modules 20)",[2]; sample x3,−0.5
same,"Mndal 1426906_at (Group G1, Modules 20)",[2]; sample x3,−0.5
same,"Rsad2 1436058_at (Group G1, Modules 20)",[2]; sample x3,−0.4
same,"Shisa5 1423986_a_at (Group G1, Modules 20)",[2]; sample x3,−0.3
same,"Shisa5 1437503_a_at (Group G1, Modules 20)",[2]; sample x3,−0.3
same,"Stat1 1450033_a_at (Group G1, Modules 20)",[2]; sample x3,−0.5
same,"Stat1 1450034_at (Group G1, Modules 20)",[2]; sample x3,−0.5
same,"Tor1aip2 1435526_at (Group G1, Modules 20)",[2]; sample x3,−0.6
same,"Z score of gene expression, Adar (probe 1425405_a_at)",[2]; [4],−0.4 and −0.6 and −0.7
same,"Z score of gene expression, Adar (probe 1434268_at)",[2]; [4],−0.1 and −0.5 and −0.3
same,"Z score of gene expression, Ddx58 (probe 1436562_at)",[2]; [4],−0.7
same,"Z score of gene expression, Ddx58 (probe 1456890_at)",[2]; [4],−0.6 and −0.7 (2×)
same,"Z score of gene expression, Eif2ak2 (probe 1422005_at)",[2]; [4],−0.4 and −0.6 and −0.5
same,"Z score of gene expression, G3bp2 (probe 1421323_a_at)",[2]; [4],−0.3 (2×) and −0.4
same,"Z score of gene expression, Gm9706///Isg15 (probe 1431591_s_at)",[2]; [4],−0.5
same,"Z score of gene expression, H2-T10///H2-T22///H2-T9 (probe 1449875_s_at)",[2]; [4],−0.6 (2×) and −0.8
same,"Z score of gene expression, Ifih1 (probe 1426276_at)",[2]; [4],−0.5 and −0.6 (2×)
same,"Z score of gene expression, Ifit1 (probe 1449025_at)",[2]; [4],−0.5
same,"Z score of gene expression, Ifit1 (probe 1450783_at)",[2]; [4],−0.5
same,"Z score of gene expression, Irf7 (probe 1417244_a_at)",[2]; [4],−0.4 (2×) and −0.5
same,"Z score of gene expression, Irgm1 (probe 1418825_at)",[2]; [4],−0.5 and −0.7 and −0.6
same,"Z score of gene expression, Mndal (probe 1426906_at)",[2]; [4],−0.5 and −0.6 (2×)
same,"Z score of gene expression, Pml (probe 1448757_at)",[2]; [4],−0.6 and −0.7 (2×)
same,"Z score of gene expression, Pml (probe 1456103_at)",[2]; [4],−0.6 (2×) and −0.5
same,"Z score of gene expression, Rnf213 (probe 1455500_at)",[2]; [4],−0.5 and −0.6 (2×)
same,"Z score of gene expression, Rsad2 (probe 1436058_at)",[2]; [4],−0.5
same,"Z score of gene expression, Shisa5 (probe 1423986_a_at)",[2]; [4],−0.6 and −0.7 and −0.8
same,"Z score of gene expression, Shisa5 (probe 1437503_a_at)",[2]; [4],−0.4 and −0.7 and −0.5
same,"Z score of gene expression, Stat1 (probe 1450033_a_at)",[2]; [4],−0.6
same,"Z score of gene expression, Stat1 (probe 1450034_at)",[2]; [4],−0.5 and −0.6 (2×)
same,"Z score of gene expression, Tdrd7 (probe 1426716_at)",[2]; [4],−0.7 and −1 and −0.9
same,"Z score of gene expression, Tor1aip2 (probe 1418115_s_at)",[2]; [4],−0.2 and −0.7 and −0.6
same,"Z score of gene expression, Tor1aip2 (probe 1418116_at)",[2]; [4],−0.4 and −0.8 and −0.6
same,"Z score of gene expression, Tor1aip2 (probe 1435526_at)",[2]; [4],−0.4 (2×) and −0.7
same,"Z score of gene expression, Trim12a (probe 1437432_a_at)",[2]; [4],−0.5
same,"Z score of gene expression, Uba7 (probe 1426970_a_at)",[2]; [4],−0.6 (2×) and −0.7
same,adjuvant group (cluster) in LN,[3]; hierarchical clustering,G2
same,"Number of gene probes with statistically significant changes (sDEGs), LN, Down","[3]; i.d. administration, fold change <0.667, p<0.01, customized PA call=1, 6 h after adjuvant",110
same,"Number of gene probes with statistically significant changes (sDEGs), LN, Up","[3]; i.d. administration, fold change >1.5, p<0.01, customized PA call=1, 6 h after adjuvant",89
